The source of these data is article PMC6825221, “In silico re-engineering of a neurotransmitter to activate KCNQ potassium channels in an isoform-specific manner” (Communications Biology, 2019).

Structures are written as SMILES. “And” between values parts separate entries of the source, which are not always exact repeats. Equal values may be shown once.

The target of assay [1] is KCNQ4 (Homo sapiens, UniProt P56696). The experiment in a line: TEVC of homomeric KCNQ4 expressed in Xenopus oocytes. In kind it is cell-based. To be noted: dose response. An excerpt: (§1) We generated cRNA transcripts encoding human KCNQ1, KCNQ2, KCNQ3, KCNQ4, KCNQ5 or GLRA1 (NM_001146040) (GenScript, Piscataway, NJ, USA) by in vitro transcription using the T7 polymerase mMessage mMachine kit (Thermo Fisher Scientific), after vector linearization, from cDNA sub-cloned into plasmids incorporating Xenopus laevis β-globin 5′ and 3′ UTRs flanking the coding region to enhance translation and cRNA stability. We quantified cRNA by spectrophotometry. We generated mutant KCNQ2 and KCNQ3 cDNAs by site-directed mutagenesis using a QuikChange kit (Stratagene, San Diego, CA) and prepared the corresponding cRNAs as above. We injected defolliculated stage V and VI Xenopus laevis oocytes (Ecocyte Bioscience, Austin, TX and Xenoocyte, Dexter, MI) with KCNQ channel α subunit (5-20 ng) or GLRA1 (20 ng) cRNAs. We incubated the oocytes at 16 °C in Barth’s saline solution (Ecocyte Bioscience) containing penicillin and streptomycin, with daily washing, for 2–5 days prior to two-electrode voltage-clamp (TEVC) recording.
(§2) We performed TEVC at room temperature using an OC-725C amplifier (Warner Instruments, Hamden, CT) and pClamp10 software (Molecular Devices, Sunnyvale, CA) 2–5 days after cRNA injection as described in the section above. For recording, oocytes were placed in a small-volume oocyte bath (Warner) and viewed them with a dissection microscope. Chemicals were sourced from Sigma, Matrix Scientific and Santa Cruz. […] All stock solutions were diluted in bath solution on the day of experiments. KCNQ2/3 channel activation was screened for using either 30 µM or 100 µM concentrations of each of the six compounds, then dose responses were conducted as appropriate. Bath solution was (in mM): 96 NaCl, 4 KCl, 1 MgCl2, 1 CaCl2, 10 HEPES (pH 7.6). Compounds were introduced into the oocyte recording bath by gravity perfusion at a constant flow of 1 ml per minute for 3 min prior to recording. Pipettes were of 1–2 MΩ resistance when filled with 3 M KCl. Currents were recorded in response to voltage pulses between −120 or −80 mV and + 40 mV at 20 mV intervals from a holding potential of −80 mV, to yield current-voltage relationships, current magnitude, and for quantifying activation rate. We analyzed data using Clampfit (Molecular Devices) and Graphpad Prism software (GraphPad, San Diego, CA, USA); values are stated as mean ± SEM. We plotted raw or normalized tail currents versus prepulse voltage and fitted with a single Boltzmann function:1 g=(A1−A2)/1+exp(V12−V)∕VS+A2, where g is the normalized tail conductance, A1 is the initial value at −∞, A2 is the final value at +∞, V1/2 is the half-maximal voltage of activation and Vs the slope factor. Activation, deactivation, wash-in and washout kinetics were fitted with single exponential functions to yield a τ value.

Assay [2] addresses KCNQ5 (Homo sapiens, UniProt Q9NR82). The experiment in a line: TEVC of homomeric KCNQ5 expressed in Xenopus oocytes. In kind it is cell-based. As to conditions: read-out: EC50, KCNQ5 activation.
Source text: as §1
We performed TEVC at room temperature using an OC-725C amplifier (Warner Instruments, Hamden, CT) and pClamp10 software (Molecular Devices, Sunnyvale, CA) 2–5 days after cRNA injection as described in the section above. For recording, oocytes were placed in a small-volume oocyte bath (Warner) and viewed them with a dissection microscope. Chemicals were sourced from Sigma, Matrix Scientific and Santa Cruz. […] All stock solutions were diluted in bath solution on the day of experiments. KCNQ2/3 channel activation was screened for using either 30 µM or 100 µM concentrations of each of the six compounds, then dose responses were conducted as appropriate. […] Currents were recorded in response to voltage pulses between −120 or −80 mV and + 40 mV at 20 mV intervals from a holding potential of −80 mV, to yield current-voltage relationships, current magnitude, and for quantifying activation rate. We analyzed data using Clampfit (Molecular Devices) and Graphpad Prism software (GraphPad, San Diego, CA, USA); values are stated as mean ± SEM. […]

In assay [3] the target is KCNQ2 (Homo sapiens, UniProt O43526). The experiment in a line: [3H]GABA binding and competition, oocytes expressing KCNQ2. To be noted: 100 µM.
In assay [4] the target is KCNQ3*-W265L (Homo sapiens, UniProt O43525, A315T/W265L). The experiment in a line: TEVC of homomeric KCNQ3*-W265L. In kind it is cell-based. An excerpt: We generated cRNA transcripts encoding human KCNQ1, KCNQ2, KCNQ3, KCNQ4, KCNQ5 or GLRA1 (NM_001146040) (GenScript, Piscataway, NJ, USA) by in vitro transcription using the T7 polymerase mMessage mMachine kit (Thermo Fisher Scientific), after vector linearization, from cDNA sub-cloned into plasmids incorporating Xenopus laevis β-globin 5′ and 3′ UTRs flanking the coding region to enhance translation and cRNA stability. We quantified cRNA by spectrophotometry. We generated mutant KCNQ2 and KCNQ3 cDNAs by site-directed mutagenesis using a QuikChange kit (Stratagene, San Diego, CA) and prepared the corresponding cRNAs as above. […]
We performed TEVC at room temperature using an OC-725C amplifier (Warner Instruments, Hamden, CT) and pClamp10 software (Molecular Devices, Sunnyvale, CA) 2–5 days after cRNA injection as described in the section above. […] Currents were recorded in response to voltage pulses between −120 or −80 mV and + 40 mV at 20 mV intervals from a holding potential of −80 mV, to yield current-voltage relationships, current magnitude, and for quantifying activation rate. We analyzed data using Clampfit (Molecular Devices) and Graphpad Prism software (GraphPad, San Diego, CA, USA); values are stated as mean ± SEM. […]

For assay [5], the target named is KCNQ2/3 (Homo sapiens, UniProt O43525+O43526). The experiment in a line: TEVC of KCNQ2/3 channels expressed in Xenopus oocytes. It is filed as cell-based.
Source text: as §1, with “We generated mutant KCNQ2 and KCNQ3 cDNAs by site-directed mutagenesis using a QuikChange kit (Stratagene, San Diego, CA) and prepared the corresponding cRNAs as above.” left out
as §2, with “For” for “We performed TEVC at room temperature using an OC-725C amplifier (Warner Instruments, Hamden, CT) and pClamp10 software (Molecular Devices, Sunnyvale, CA) 2–5 days after cRNA injection as described in the section above. For”

The mark [6] stands for this setting: 100 µM, −60 mV, single exponential fit.

Chain of KCNQ2/3 (O43525 whole entry): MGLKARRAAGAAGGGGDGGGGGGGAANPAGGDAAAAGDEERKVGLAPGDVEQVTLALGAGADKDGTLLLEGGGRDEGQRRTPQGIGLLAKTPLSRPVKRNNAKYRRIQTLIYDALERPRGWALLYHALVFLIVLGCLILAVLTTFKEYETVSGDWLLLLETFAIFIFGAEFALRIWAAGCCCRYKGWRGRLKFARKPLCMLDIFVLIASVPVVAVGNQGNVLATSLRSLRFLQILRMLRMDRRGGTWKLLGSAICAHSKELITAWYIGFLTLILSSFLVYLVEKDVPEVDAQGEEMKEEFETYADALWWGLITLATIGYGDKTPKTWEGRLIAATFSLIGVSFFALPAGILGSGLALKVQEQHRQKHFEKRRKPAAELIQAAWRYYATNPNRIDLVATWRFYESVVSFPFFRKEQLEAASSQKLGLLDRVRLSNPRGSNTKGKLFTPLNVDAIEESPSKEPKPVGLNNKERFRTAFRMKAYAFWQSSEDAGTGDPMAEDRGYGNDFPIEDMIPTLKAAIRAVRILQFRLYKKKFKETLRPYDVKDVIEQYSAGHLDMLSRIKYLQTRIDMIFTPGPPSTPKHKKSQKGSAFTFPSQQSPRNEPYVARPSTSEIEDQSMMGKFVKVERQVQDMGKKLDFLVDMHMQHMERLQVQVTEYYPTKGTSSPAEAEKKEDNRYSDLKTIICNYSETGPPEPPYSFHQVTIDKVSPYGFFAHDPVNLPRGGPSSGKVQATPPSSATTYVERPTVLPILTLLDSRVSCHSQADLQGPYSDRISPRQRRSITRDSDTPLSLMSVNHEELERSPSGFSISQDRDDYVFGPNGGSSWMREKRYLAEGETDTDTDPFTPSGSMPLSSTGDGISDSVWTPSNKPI
Chain of KCNQ2/3 (O43526 whole entry): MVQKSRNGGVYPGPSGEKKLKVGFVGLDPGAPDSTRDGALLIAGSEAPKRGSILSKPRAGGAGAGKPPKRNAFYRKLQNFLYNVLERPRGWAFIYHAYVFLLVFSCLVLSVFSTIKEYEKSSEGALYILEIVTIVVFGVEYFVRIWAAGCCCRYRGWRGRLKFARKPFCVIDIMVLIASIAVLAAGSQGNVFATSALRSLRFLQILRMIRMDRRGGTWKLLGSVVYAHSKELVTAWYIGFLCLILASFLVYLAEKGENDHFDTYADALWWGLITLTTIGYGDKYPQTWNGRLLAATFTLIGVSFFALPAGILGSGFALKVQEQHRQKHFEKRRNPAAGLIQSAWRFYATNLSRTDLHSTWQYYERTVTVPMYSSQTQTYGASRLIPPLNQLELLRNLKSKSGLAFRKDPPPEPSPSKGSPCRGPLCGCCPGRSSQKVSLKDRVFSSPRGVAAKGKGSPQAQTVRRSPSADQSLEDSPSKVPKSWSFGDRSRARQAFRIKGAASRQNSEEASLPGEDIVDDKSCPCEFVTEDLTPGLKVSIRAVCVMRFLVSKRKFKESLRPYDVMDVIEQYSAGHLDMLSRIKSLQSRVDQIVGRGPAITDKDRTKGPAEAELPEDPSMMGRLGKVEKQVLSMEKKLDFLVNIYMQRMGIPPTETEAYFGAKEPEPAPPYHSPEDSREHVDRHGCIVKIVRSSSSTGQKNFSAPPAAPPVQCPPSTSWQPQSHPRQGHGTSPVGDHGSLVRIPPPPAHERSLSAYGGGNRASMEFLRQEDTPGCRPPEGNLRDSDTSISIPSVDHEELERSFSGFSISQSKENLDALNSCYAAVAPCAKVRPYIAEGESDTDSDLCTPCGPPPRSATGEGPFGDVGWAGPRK

With `CS(=O)(=O)N(CC(=O)O)c1cccc(F)c1` [3FMSG], the “effects on KCNQ4” value in assay [1] is “negligible or much less potent effects”. Also, the EC50 in assay [2] worked out at 171 ± 112 nM. In assay [3], the “competition of GABA binding to KCNQ2” value is recorded as “able to compete out GABA binding”. Moreover, in assay [4], the “maximal efficacy, KCNQ3*-W265L versus KCNQ3*” value is reported as “reduced by half” and the “reduction of sensitivity by the W265L mutation versus KCNQ3*” value is recorded as 44 fold. In addition, the “KCNQ2/3 activation and deactivation rates” value in assay [5] (100 µM, single exponential fit (τ)) was “speeded KCNQ2/3 activation and slowed its deactivation”. Also, in assay [5] (setting [6]), the “tau of KCNQ2/3 current decrease during washout” value was 40 s and 39 ± 10 s; the “tau of KCNQ2/3 current increase during wash-in” value was ~ 15 s and 15 ± 3 s. In addition, in assay [5] (either compound alone, 1 uM), the “increase in KCNQ2/3 current at −60 mV” value was “~ fivefold”. The EC50 in assay [5] (shift in voltage dependence of activation (ΔV0.5act), TEVC in oocytes, read-out: EC50, KCNQ2/3 activation) worked out at 51 ± 21 nM.
